Data as given in patent US20220304929A1, “LIPIDS FOR DELIVERY OF CHARGED MATERIAL, FORMULATIONS THEREOF AND METHOD FOR MAKING SAME” (INTEGRATED NANOTHERAPEUTICS INC., priority 2019, published 2022).
“Also recorded” adds a separate entry of the source.

Experiments:
[1] = test system: Firefly Luciferase mRNA expression in liver; experiment: LNP luciferase mRNA expression in vivo in the liver of mice; set-up: species or system mouse; conditions: C57Bl/6 mice, 1 mg/kg mRNA i.v., liver at 4 hours post-injection
Experimental: Lipid nanoparticle (LNP) formulations containing cationic lipids of the disclosure and Luciferase mRNA were injected via a tail vein in C57Bl/6 wild-type mice at mRNA dose of 1 mg/kg and the luminescence in the liver was measured post injection. From left-to-right, the cationic lipids incorporated in the LNP-mRNA were INT-A001, INT-A002, INT-A003 and INT-A004. Untreated animals were injected with phosphate buffered saline (PBS).
To assess in vivo activity, LNPs containing Firefly Luciferase mRNA were prepared as described in Example 2. LNPs were diluted with PBS and administered at 1 mg/kg intravenously via tail vein in 6 to 8 weeks old female C57Bl/6 mice (Charles River Laboratories, Wilmington, Mass.). At 4 hours post-injection, animals were euthanized and the livers were collected. Approximately 100 mg of liver was homogenized in 0.5 mL Glo Lysis Buffer (Promega). The homogenate was further diluted 1:4 with the lysis buffer and then 50 μL of diluted homogenate was added to 50 μL Steady-Glo reagent (Promega). The level of luminescence was determined using a Synergy LX plate reader (BioTek).

[2] = Apparent pKa of LNP systems (TNS fluorescence assay); format: physicochemical; conditions: LNP containing ionizable lipid and FVII siRNA
Experimental: Apparent acid dissociation constants (pKa) of LNP systems were determined according to a procedure described in the literature (Jayaraman, M., et al., Maximizing the potency of siRNA lipid nanoparticles for hepatic gene silencing in vivo. Angewandte Chemie, 2012. 51(34): p. 8529-33). Briefly, 2-(p-toluidino)-6-napthalene sulfonic acid (TNS, Sigma-Aldrich, St. Louis, Mo.) and LNP were diluted in buffer (10 mM HEPES, 10 mM MES and 10 mM ammonium acetate) with pH ranges from 2.5 to 11. Final concentration of TNS or total lipid was 6 μM. Samples were then mixed and fluorescence intensity was measured (Ex/Em: 321/445 nm) using a Perkin Elmer LS55. A sigmoidal best fit analysis was applied and the pKa was measured as the pH at half-maximal fluorescence intensity.

factor VII (FVII) = experiment: LNP-siRNA activity in the mouse Factor VII model; format: in vivo; conditions: C57Bl/6 mice, 24 hours post-injection; for Activity in mediating FVII gene-silencing (residual serum FVII levels): i.v. tail vein, 0.03-0.3 mg/kg siRNA
Experimental: Lipid nanoparticle (LNP) formulations containing cationic lipids of the disclosure and FVII siRNA were injected via a tail vein in C57Bl/6 wild-type mice and the levels of FVII in plasma was measured post injection. The mice were injected with LNP-siRNA at doses of 0.03 (left bar), 0.1 (middle bar) and 0.3 mg/kg (right bar). The cationic lipids incorporated in the LNPs were INT-A001, INT-A002, INT-A003 and INT-A007.
LNPs prepared as described in Example 2 containing siRNA against factor VII (FVII) were diluted with PBS such that injection volumes were maintained at 10 mL/kg body weight and administered (based on siRNA concentration) intravenously via tail vein in 6 to 8 weeks old female C57Bl/6 mice (Charles River Laboratories, Wilmington, Mass.). At 24 hours post-injection, animals were euthanized and blood was collected via intracardiac sampling. Blood samples were allowed to coagulate at 4° C. overnight and the serum was separated followed by centrifugation for 15 min at 12,000 rpm. The serum FVII levels were determined using the Biophen VII chromogenic assay (Aniara, Mason, Ohio) according to the protocol of the manufacturer.

[3] = RNA or antisense oligonucleotide encapsulation efficiency (Quant-iT Ribogreen RNA / Oligreen ssDNA assays); format: physicochemical
Experimental: The RNA or antisense oligonucleotide encapsulation efficiency was determined using the Quant-iT Ribogreen RNA or Oligreen ssDNA Assays, respectively (Life Technologies, Burlington, ON). Briefly, LNP was incubated at 37° C. for 10 min in the presence or absence of 1% Triton X-100 (Sigma-Aldrich, St. Louis, Mo.) followed by the addition of the Ribogreen or Oligreen reagent. The fluorescence intensity (Ex/Em: 480/520 nm) was determined and samples treated with Triton X-100 represent total nucleic acid while untreated samples represent unencapsulated nucleic acid.
To prepare the LNPs, ionizable lipid, DSPC, cholesterol and PEG-DMPE were dissolved in ethanol. The siRNA was dissolved in pH 4.0-6.2 buffer composed of 10-50 mM acetate, succinate or citrate. In select cases, 10-50 mM 4-(2-Hydroxyethyl)piperazine-1-ethanesulfonic acid (HEPES) or 2-(N-Morpholino)ethanesulfonic acid (MES) buffer was used. LNP were prepared by rapidly mixing the lipid components in ethanol (in molar ratio of 50/10/38.5/1.5 of […]) with nucleic acids in aqueous buffer at a volumetric flow rate ratio of 1:3 (ethanol to aqueous, combined flow rate >12 mL/min) at room temperature. Typically, siRNA/lipids ratios were targeted for 0.056 wt/μmol. The product was then dialyzed against 1× phosphate-buffered saline (PBS) at pH 7.4 for 24 hours to remove residual ethanol and to raise the pH. PBS was refreshed after 4 hours.

[4] = LNP particle size and polydispersity by dynamic light scattering; format: physicochemical
[5] = Peptide incorporation into LNP (Peptide:Lipid ratio; BCA or CBQCA protein quantification); format: physicochemical
Experimental: (§1) Lipid concentrations were determined by measuring total cholesterol using the Cholesterol E enzymatic assay kit from Wako Chemicals USA (Richmond, Va.).
Quantification of protein/peptide was performed with the use of either the BCA Protein Assay (Pierce) or the CBQCA Protein Quantitation Kit (Invitrogen) according to the manufacturer's instructions.

HepG2 cells = experiment: LNP luciferase mRNA expression in cultured HepG2 cells; format: cell-based; conditions: 0.125-1 μg/mL luciferase mRNA, 16-24 hr
Experimental: Cells were treated with LNP formulations containing ionizable lipids of the disclosure and luciferase mRNA at concentrations of 0.125-1 μg/mL. The level of luminescence was measured post treatment. From left-to-right, the ionizable lipids incorporated in the LNPs were INT-A001 (white bar), INT-A002 (dotted bar), INT-A003 (black bar) and INT-A004 (gray bar).
The activity of the ionizable lipids in vitro was evaluated in cultured HepG2 cells. LNPs containing Firefly Luciferase mRNA were prepared as described in Example 2. LNPs were diluted to 0.125-1 μg/mL with DMEM media containing 10% FBS and incubated with HepG2 cells for 16-24 hr. Cells were then lysed with Glo-Lysis Buffer (Promega). Equal amounts of Steady-Glo reagent (Promega) was added to each sample and the level of luminescence was determined using a Synergy LX plate reader (BioTek).

[6] = HA incorporation into LNP (HA:Lipid ratio); format: physicochemical; conditions: LNP containing ionizable lipid and HA (8-15 kDa)
Experimental: as §1
Hyaluronic acid was used as an example of anionic cargos. LNPs were prepared as described in Example 2 containing HA with a molecular weight of 8-15 kDa.

[7] = LNP containing ionizable lipid and Luciferase mRNA
[8] = LNP containing ionizable lipid and antisense oligonucleotide
[9] = LNP containing ionizable lipid and siRNA
[10] = LNP containing ionizable lipid and a 4.2 kDa acidic peptide (net charge -3)
[11] = LNP containing ionizable lipid and HA (8-15 kDa)
[12] = LNP containing ionizable lipid and a 2.0 kDa acidic peptide (net charge -3)
[13] = LNP containing ionizable lipid and a 2.0 kDa basic peptide (net charge +4)

| Compound | Activity in delivering mRNA and inducing mRNA expression in vivo (liver luminescence) [1] | Apparent pKa [2] | Activity in mediating FVII gene-silencing (residual serum FVII levels) (factor VII (FVII)) | Encapsulation Efficiency [3, 7] [%] | Encapsulation Efficiency [3, 8] [%] | Encapsulation Efficiency [3, 9] [%] | Particle Diameter [4, 7] [nm] | Polydispersity index (PDI) [4, 7] | Particle Diameter [4, 10] [nm] | Polydispersity index (PDI) [4, 10] | Particle Diameter [4, 8] [nm] | Polydispersity index (PDI) [4, 8] | Particle Diameter [4, 9] [nm] | Polydispersity index (PDI) [4, 9] | Peptide:Lipid [5, 10] [wt/wt] | Activity in delivering mRNA and inducing its expression in vitro (luminescence) (HepG2 cells) | HA:Lipid [6] [wt/wt] | Particle Diameter [4, 11] [nm] | Polydispersity index (PDI) [4, 11] | Particle Diameter [4, 12] [nm] | further results |
| --- | --- | --- | --- | --- | --- | --- | --- | --- | --- | --- | --- | --- | --- | --- | --- | --- | --- | --- | --- | --- | --- |
| CCCCC/C=C\C/C=C\CCCCCCCC(=O)O[C@@H](CCCCCCCC)[C@@H](CCCCCCCC(=O)OCCN(C)C)OC(=O)CCCCCCC/C=C\C/C=C\CCCCC (racemic) [INT-A001, 2-(Dimethylamino)ethyl (±)-syn-9,10-dilinoleoxystearate] | can effectively deliver mRNA | 6.3 | active in mediating gene-silencing | 96 | 84 | 89 | 43 | 0.064 | 48 | 0.021 | 44 | 0.103 | 50 | 0.059 | 0.161 | can effectively deliver mRNA |  |  |  |  |  |
| CCCCC/C=C\C/C=C\CCCCCCCC(=O)O[C@@H](CCCCCCCC)[C@@H](CCCCCCCC(=O)OCCCN(CC)CC)OC(=O)CCCCCCC/C=C\C/C=C\CCCCC (racemic) [INT-A002, 3-(Diethylamino)propyl (±)-syn-9,10-dilinoleoxystearate] |  |  | active in mediating gene-silencing; also recorded: most active | 99 | 92 | 97 | 47 | 0.053 | 62 | 0.015 | 49 | 0.096 | 52 | 0.063 | 0.157 | can effectively deliver mRNA | 0.093 | 83 | 0.027 |  | Activity in delivering mRNA and inducing mRNA expression in vivo (liver luminescence) ([1]; 1 mg/kg): can effectively deliver mRNA; also recorded: most active; ED 50 (effective dose to achieve 50% gene-silencing) (factor VII (FVII); i.v. LNP FVII siRNA, estimated): less than 0.1 mg/kg |
| CCCCC/C=C\C/C=C\CCCCCCCC(=O)O[C@@H](CCCCCCCC)[C@@H](CCCCCCCC(=O)OCCCN(C)C)OC(=O)CCCCCCC/C=C\C/C=C\CCCCC (racemic) [INT-A003, 3-(Dimethylamino)propyl (±)-syn-9,10-dilinoleoxystearate] | can effectively deliver mRNA |  | active in mediating gene-silencing | 99 | 89 | 92 | 49 | 0.050 | 76 | 0.031 | 54 | 0.036 | 55 | 0.043 | 0.160 | can effectively deliver mRNA; also recorded: most active | 0.094 | 64 | 0.035 | 142 | Polydispersity index (PDI) [4, 12]: 0.025; Peptide:Lipid [5, 12]: 0.074 wt/wt |
| CCCCC/C=C\C/C=C\CCCCCCCC(=O)O[C@@H](CCCCCCCC)[C@@H](CCCCCCCC(=O)OCCN(CC)CC)OC(=O)CCCCCCC/C=C\C/C=C\CCCCC (racemic) [INT-A004, 2-(Diethylamino)ethyl (±)-syn-9,10-dilinoleoxystearate] | can effectively deliver mRNA | 5.8 |  | 96 | 88 | 61 | 42 | 0.090 | 40 | 0.034 | 45 | 0.065 | 58 | 0.024 | 0.158 | can effectively deliver mRNA |  |  |  | 59 | Polydispersity index (PDI) [4, 12]: 0.051; Peptide:Lipid [5, 12]: 0.073 wt/wt |
| CCCCC/C=C\C/C=C\CCCCCCCC(=O)O[C@@H](CCCCCCCC)[C@@H](CCCCCCCC(=O)O)OC(=O)CCCCCCC/C=C\C/C=C\CCCCC (racemic) [INT-A008, (±)-syn-9,10-Dilinoleoxystearic Acid] |  |  |  |  |  |  |  |  |  |  |  |  |  |  |  |  |  |  |  |  | Particle Diameter [4, 13]: 39 nm; Polydispersity index (PDI) [4, 13]: 0.058; Peptide:Lipid [5, 13]: 0.104 wt/wt |
| CCCCCCCCC(CCCCCC)C(=O)O[C@@H](CCCCCCCC)[C@@H](CCCCCCCC(=O)O)OC(=O)C(CCCCCC)CCCCCCCC (mixture of isomers) [INT-A009, (±)-syn-9,10-Bis(2-hexyldecanoyloxy)stearic Acid] |  |  |  |  |  |  |  |  |  |  |  |  |  |  |  |  |  |  |  |  | Particle Diameter [4, 13]: 39 nm; Polydispersity index (PDI) [4, 13]: 0.057; Peptide:Lipid [5, 13]: 0.121 wt/wt |
